Reference: patent publication US20040213742A1, “Monitoring marker” (priority 2002, published 2004)

Assay: Intrauterine injection of pure N2O gas in anaesthetized pigs, N2O detected in expired breath
Type: in vivo
Details: anaesthetized pig
Experimental: Pure nitrous oxide (N2O) gas was injected into the uterine cavities of 2 anaesthetized pigs with open uterine tubes and surgically ligated uterine tubes, respectively. Said N2O was detected every second in the expired breath by means of a conventional N2O detector.
The results are shown in FIGS. 1 and 2, where FIG. 1 is a concentration versus time graph and FIG. 2 is a cumulative concentration versus time graph, the upper curves representing closed uterine tubes and the lower curves representing open uterine tubes.
Furthermore, there was a clear difference between the two curves versus time which enables a monitoring of fallopian tube abnormalities as claimed by the present invention.

time to maximum concentration in the exhaled air (open uterine tubes, intrauterine injection of pure N2O gas): approximately 2 minutes
maximum concentration in the exhaled air (open uterine tubes, pure N2O gas injected into uterine cavity, detected every second in expired breath): approximately 40 ppm
maximum concentration in the exhaled air, closed tubes relative to open tubes (higher) (surgically ligated (closed) uterine tubes versus open uterine tubes): approximately 50%
Structure (SMILES): [N-]=[N+]=O [nitrous oxide]
